Experimental data reported in ChEMBL document CHEMBL1201862, “PubChem BioAssay data set” (2004).
Activity calls are given as the source filed them.

What was measured:
Fatty acid synthase [1] = biological target: T1, Fatty acid synthase (Homo sapiens, UniProt P49327); assay: inhibition of human FAS-TE enzyme activity – biochemical, endpoint fluorescence intensity, uHTS hits, dose response (AID 624327); type: functional;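 also: fluorescence from hydrolysis of an O-methyl fluorescein acyl ester substrate by the enzyme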
T1 sequence (P49327 whole entry): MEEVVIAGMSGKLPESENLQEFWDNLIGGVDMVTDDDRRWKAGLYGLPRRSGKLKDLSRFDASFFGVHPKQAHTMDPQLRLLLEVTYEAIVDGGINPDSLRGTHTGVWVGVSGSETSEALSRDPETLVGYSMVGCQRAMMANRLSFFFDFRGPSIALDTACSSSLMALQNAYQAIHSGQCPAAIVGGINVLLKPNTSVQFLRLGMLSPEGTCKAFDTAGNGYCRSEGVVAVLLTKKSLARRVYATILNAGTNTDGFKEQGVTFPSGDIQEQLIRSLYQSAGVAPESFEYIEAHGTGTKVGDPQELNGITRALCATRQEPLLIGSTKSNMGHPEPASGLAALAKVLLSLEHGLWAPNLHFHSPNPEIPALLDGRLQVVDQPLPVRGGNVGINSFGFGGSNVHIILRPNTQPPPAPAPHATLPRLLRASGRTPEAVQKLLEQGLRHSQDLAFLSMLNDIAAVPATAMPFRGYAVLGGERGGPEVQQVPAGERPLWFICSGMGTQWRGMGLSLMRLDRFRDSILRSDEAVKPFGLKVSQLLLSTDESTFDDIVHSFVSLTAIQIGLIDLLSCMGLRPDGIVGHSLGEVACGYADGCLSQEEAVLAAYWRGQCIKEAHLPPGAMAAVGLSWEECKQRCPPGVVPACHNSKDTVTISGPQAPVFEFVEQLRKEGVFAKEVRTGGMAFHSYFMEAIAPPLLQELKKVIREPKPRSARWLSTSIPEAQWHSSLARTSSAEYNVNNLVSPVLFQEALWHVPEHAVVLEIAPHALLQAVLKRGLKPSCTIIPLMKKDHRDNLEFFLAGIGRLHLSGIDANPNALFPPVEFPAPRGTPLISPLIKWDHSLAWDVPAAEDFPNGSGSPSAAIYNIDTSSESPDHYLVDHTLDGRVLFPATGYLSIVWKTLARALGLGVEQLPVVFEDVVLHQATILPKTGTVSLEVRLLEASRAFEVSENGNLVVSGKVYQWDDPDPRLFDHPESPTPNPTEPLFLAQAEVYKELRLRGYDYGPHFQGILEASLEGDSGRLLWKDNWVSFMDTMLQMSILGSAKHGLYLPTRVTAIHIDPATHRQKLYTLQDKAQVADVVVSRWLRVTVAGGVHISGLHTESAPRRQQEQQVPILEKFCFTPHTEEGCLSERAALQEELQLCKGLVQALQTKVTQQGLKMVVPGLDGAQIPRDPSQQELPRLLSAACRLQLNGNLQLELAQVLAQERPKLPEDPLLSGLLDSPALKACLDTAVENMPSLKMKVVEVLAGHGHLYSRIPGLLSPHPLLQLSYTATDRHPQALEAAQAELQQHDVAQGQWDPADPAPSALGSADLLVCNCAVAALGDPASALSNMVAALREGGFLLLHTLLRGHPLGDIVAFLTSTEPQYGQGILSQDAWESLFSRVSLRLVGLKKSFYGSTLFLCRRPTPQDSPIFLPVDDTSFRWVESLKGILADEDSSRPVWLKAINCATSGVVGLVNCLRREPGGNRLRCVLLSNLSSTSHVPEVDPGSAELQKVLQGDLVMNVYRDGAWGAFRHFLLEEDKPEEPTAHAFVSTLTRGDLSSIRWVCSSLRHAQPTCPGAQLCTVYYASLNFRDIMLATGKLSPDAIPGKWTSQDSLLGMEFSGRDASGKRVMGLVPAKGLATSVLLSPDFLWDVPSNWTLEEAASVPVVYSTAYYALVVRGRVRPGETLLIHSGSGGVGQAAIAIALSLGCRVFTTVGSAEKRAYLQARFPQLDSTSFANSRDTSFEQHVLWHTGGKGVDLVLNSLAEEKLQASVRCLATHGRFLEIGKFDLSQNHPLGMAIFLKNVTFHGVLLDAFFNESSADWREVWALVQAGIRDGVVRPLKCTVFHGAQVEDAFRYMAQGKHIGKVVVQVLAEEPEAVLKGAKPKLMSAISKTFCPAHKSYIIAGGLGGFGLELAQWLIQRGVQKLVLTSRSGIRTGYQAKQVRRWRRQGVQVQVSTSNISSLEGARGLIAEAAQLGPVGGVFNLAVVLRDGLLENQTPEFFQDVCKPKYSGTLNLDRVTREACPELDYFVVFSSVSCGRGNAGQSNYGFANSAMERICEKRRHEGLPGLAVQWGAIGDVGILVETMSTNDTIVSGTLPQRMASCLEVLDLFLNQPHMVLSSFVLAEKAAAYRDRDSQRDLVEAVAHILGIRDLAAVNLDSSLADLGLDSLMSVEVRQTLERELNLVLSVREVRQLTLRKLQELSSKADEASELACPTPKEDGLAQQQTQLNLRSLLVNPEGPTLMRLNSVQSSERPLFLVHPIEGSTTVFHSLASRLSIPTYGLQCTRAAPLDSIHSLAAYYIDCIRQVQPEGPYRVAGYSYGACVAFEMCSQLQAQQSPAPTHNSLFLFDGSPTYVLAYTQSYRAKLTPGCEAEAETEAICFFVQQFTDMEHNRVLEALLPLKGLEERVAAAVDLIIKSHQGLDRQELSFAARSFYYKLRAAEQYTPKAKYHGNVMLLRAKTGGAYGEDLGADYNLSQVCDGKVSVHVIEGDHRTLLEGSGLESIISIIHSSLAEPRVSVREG

Fatty acid synthase [2] = biological target: T1, Fatty acid synthase; assay: inhibition of human FAS-TE enzyme activity – biochemical, kinetic fluorescence intensity, dose response (AID 624326); type: functional;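 also: rate of fluorescence rise from hydrolysis of a fluorogenic O-methyl fluorescein ester substrate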
Estrogen receptor = biological target: T2, Estrogen receptor (Homo sapiens, UniProt P03372);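 also: potency for inhibiting coactivator peptide recruitment to the receptor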
T2 sequence (P03372 whole entry): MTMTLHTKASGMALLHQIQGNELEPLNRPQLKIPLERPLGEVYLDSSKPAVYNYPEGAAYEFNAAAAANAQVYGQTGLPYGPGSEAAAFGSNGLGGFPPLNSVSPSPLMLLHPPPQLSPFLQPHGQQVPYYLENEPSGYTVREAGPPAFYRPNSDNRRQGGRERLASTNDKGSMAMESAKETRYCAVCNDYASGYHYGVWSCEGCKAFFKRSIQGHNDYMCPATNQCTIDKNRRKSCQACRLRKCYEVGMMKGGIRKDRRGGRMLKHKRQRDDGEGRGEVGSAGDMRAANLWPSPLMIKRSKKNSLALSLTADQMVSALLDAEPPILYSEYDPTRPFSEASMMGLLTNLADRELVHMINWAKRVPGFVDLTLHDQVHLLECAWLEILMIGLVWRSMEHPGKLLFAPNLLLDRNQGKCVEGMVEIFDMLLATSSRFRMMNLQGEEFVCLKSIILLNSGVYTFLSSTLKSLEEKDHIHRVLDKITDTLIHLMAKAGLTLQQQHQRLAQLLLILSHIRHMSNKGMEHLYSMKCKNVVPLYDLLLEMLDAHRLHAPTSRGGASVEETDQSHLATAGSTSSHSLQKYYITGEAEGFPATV

[3] = biological target: T3, Polyadenylate-binding protein 1 (Homo sapiens, UniProt P11940); assay: MLLE domain peptide-binding blockers, IC50 – biochemical, fluorescence polarization, FITC-PAM2 peptide, dose response (AID 602259); type: functional; details: read-out: IC50_Mean
T3 sequence (P11940 whole entry, the tested form may be a part): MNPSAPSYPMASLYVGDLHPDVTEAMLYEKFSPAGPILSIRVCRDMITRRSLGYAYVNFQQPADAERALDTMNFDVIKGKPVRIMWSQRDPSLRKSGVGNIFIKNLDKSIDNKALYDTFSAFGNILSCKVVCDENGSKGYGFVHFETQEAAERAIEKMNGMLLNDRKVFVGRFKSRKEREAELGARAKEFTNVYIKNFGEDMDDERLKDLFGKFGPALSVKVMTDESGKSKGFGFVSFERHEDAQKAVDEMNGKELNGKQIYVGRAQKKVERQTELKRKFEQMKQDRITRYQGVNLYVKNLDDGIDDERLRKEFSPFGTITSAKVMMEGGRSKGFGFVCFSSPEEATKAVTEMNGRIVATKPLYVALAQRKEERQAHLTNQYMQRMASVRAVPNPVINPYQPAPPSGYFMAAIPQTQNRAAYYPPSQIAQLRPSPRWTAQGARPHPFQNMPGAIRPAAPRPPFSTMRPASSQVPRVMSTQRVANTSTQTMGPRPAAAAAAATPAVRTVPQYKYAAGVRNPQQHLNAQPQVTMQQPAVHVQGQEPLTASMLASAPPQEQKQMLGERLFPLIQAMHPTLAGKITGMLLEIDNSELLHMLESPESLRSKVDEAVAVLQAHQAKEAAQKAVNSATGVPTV

[4] = biological target: T3, Polyadenylate-binding protein 1; assay: MLLE binding blockers, Cy5 peptide tracer – biochemical, fluorescence polarization, Cy5-PAM2 peptide, secondary, miRNA deadenylation inhibitor project, dose response (AID 602260); type: functional; details: read-out: IC50_Mean
[5] = blockers of HIV-1 ZM109 envelope-driven cell-cell fusion – HeLa effector, CEM target cells, luciferase, cherry-pick, dose response (AID 652058); type: functional, cell-based;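 also: luciferase signal from HIV-1 Env mediated cell-cell fusion of effector and target cells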
[6] = blockers of HIV-1 envelope-mediated cell-cell fusion – cherry-pick, dose response (AID 652057); type: functional, cell-based
[7] = HIV-1 AD8 envelope cell-cell fusion blockers – cherry-pick, dose response (AID 652062); type: functional, cell-based;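 also: luciferase signal from cell-cell fusion driven by HIV-1 clade B AD8 Env; potency is for inhibitors of fusion seen as a drop in luminescence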
Large T antigen = Large T antigen (Simian virus 40, UniProt P03070); type: functional, Betapolyomavirus macacae;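 also: Confirmatory-stage PubChem screen for compounds that inhibit SV40 T antigen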
Sequence of Large T antigen (P03070 whole entry): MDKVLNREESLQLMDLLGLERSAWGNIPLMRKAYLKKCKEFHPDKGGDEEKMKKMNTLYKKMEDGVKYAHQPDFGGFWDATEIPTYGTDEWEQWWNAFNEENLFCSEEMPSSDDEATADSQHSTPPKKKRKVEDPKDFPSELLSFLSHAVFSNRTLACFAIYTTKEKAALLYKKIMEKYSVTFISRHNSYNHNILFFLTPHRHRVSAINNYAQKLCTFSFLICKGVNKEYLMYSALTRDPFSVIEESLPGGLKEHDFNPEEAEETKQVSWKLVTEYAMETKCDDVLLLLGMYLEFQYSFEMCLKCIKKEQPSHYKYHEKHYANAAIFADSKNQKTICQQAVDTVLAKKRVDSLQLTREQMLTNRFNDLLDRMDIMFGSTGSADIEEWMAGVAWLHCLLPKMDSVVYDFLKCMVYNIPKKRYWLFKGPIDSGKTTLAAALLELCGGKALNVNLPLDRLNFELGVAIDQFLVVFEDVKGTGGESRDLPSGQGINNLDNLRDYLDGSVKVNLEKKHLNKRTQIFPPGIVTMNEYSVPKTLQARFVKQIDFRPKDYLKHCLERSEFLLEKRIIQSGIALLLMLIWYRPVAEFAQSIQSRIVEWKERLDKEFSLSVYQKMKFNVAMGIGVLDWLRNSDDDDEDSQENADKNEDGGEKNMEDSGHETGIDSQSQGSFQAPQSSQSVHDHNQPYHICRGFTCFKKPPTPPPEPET

Genome polyprotein = Genome polyprotein (dengue virus type 2, UniProt P29990); assay: flavivirus cap methylation enzyme inhibition – biochemical, confirmation dose response, primary screen (AID 588689); type: functional
[8] = blockade of melanocortin 4 receptor signaling – cell-based, plate reader, cherry pick, counter-screen for LGR2 antagonist project, dose response (AID 743444); type: functional;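 also: transfected HEK 293 cells stimulated with alpha-MSH peptide; potency of inhibitors of the alpha-MSH evoked signal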
[9] = blockers of bursicon-stimulated LGR2 cAMP reporter – cell-based, HEK293, CRE-luciferase reporter, cherry pick, set 2, dose response (AID 743343); type: functional;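 also: transfected cells were stimulated with diluted bursicon conditioned medium after compound addition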
Protein RecA = biological target: T4, Protein RecA (Mycobacterium tuberculosis, UniProt P9WHJ3); assay: Fluorescence Cell-Free Homogeneous Dose Retest to Identify Inhibitors of RecA-Intein Splicing Activity. [Related pubchem assays (depositor defined):AID2097, AID2223, AID489010, AID492950]; type: functional
T4 sequence (P9WHJ3 whole entry): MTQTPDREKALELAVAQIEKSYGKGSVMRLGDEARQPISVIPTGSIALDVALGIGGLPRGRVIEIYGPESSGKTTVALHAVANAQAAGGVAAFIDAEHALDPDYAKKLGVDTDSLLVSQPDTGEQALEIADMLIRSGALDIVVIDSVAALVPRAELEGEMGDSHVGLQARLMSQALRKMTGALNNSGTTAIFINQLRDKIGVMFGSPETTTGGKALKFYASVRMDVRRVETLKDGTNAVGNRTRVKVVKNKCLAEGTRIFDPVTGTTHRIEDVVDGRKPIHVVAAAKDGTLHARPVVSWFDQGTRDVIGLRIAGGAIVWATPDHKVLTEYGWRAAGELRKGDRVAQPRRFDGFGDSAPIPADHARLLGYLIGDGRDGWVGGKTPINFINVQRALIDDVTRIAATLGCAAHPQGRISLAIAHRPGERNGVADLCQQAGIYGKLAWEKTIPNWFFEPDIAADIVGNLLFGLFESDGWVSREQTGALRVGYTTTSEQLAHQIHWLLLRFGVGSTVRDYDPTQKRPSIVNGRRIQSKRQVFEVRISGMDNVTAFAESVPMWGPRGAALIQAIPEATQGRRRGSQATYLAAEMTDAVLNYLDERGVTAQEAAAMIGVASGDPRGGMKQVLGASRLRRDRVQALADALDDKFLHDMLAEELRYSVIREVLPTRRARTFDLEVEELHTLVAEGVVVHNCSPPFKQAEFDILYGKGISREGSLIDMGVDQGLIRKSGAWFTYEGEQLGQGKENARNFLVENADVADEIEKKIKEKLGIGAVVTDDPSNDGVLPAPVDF

[10] = biological target: T5, Replicative DNA helicase DnaB (Mycobacterium tuberculosis, UniProt P9WMR3); assay: DnaB intein splicing inhibitors, dose response, biochemical, cell-free fluorescence (AID 449749); type: functional
T5 sequence (P9WMR3 whole entry): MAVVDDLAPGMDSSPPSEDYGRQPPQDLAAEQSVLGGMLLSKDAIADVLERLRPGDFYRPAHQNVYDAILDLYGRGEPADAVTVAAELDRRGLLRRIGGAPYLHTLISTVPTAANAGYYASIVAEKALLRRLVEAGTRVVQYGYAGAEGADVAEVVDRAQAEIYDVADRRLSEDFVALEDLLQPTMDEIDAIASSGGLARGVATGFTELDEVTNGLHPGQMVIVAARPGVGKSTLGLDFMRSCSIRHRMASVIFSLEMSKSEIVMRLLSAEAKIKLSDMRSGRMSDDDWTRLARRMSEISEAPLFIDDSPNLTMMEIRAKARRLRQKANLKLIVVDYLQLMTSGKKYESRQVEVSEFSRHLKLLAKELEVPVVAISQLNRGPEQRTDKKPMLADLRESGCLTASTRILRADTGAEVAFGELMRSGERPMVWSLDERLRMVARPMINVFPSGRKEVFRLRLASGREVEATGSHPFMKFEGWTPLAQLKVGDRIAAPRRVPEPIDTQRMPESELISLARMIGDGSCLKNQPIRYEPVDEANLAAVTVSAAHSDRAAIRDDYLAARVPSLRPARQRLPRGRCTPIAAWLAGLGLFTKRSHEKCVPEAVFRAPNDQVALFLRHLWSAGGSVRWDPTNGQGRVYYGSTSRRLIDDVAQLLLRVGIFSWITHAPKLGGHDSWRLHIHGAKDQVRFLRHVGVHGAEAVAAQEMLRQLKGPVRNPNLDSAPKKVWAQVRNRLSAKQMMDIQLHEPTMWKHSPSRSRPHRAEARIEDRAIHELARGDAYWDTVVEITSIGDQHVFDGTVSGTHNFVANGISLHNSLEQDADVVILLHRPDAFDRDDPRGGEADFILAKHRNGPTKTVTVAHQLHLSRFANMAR

[11] = biological target: Heat shock protein HSP 90-alpha (Homo sapiens, UniProt P07900); type: functional, organism-based
[12] = biological target: Induced myeloid leukemia cell differentiation protein Mcl-1 (Homo sapiens, UniProt Q07820); type: functional
Sequence of Induced myeloid leukemia cell differentiation protein Mcl-1 (Q07820 whole entry): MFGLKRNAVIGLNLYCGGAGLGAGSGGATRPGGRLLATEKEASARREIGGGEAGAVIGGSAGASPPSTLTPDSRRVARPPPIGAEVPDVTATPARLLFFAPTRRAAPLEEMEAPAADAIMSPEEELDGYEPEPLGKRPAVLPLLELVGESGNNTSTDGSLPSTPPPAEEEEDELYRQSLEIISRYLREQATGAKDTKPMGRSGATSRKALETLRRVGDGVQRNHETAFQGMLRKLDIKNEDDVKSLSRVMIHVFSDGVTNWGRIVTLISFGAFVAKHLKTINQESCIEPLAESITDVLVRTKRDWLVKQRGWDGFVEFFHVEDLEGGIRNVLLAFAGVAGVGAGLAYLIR

[13] = Luminescence Cell-Based Dose Confirmation HTS to Identify Inhibitors of Platelet Dense Granule Release. [Related pubchem assays: 1663 (Primary HTS), 1678 (Summary of Project)]; type: functional
[14] = biological target: Luciferin 4-monooxygenase (Photinus pyralis, UniProt P08659); assay: inhibition of purified Photinus pyralis luciferase – biochemical, luminescence, dose response (AID 1891)
Sequence of Luciferin 4-monooxygenase (P08659 whole entry): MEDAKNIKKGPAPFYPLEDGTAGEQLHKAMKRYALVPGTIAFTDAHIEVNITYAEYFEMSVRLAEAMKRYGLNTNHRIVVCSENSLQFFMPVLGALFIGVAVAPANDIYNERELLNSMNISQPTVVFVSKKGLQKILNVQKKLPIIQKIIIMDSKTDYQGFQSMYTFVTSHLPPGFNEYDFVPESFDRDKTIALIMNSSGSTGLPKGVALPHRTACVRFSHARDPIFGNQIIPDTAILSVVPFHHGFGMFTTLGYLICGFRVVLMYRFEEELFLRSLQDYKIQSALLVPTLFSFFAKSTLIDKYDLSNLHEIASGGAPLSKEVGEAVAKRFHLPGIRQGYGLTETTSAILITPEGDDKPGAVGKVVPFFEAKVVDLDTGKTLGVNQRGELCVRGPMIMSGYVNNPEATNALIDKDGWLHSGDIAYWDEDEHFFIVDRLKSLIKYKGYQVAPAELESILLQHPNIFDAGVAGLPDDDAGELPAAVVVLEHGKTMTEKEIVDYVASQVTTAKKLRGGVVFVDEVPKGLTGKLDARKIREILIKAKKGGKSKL

[15] = NIH3T3 cell viability loss – ATP luminescence, mouse fibroblasts, counter-screen, dose response (AID 2010); type: functional, cell-based;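 also: cells exposed to compound for about 90 hours before reading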
[16] = Trypanosoma cruzi growth suppression in host cells – NIH3T3 host cells, beta-gal luminescence, confirmation (AID 2044); type: functional, cell-based;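 also: intracellular parasites grown in NIH/3T3 mouse fibroblasts as host cells; luminescent beta-galactosidase reporter signal from transgenic T. cruzi replicating inside host cells; inhibitors lower the luminescence signal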

C/C(=N\NC(=O)c1nnn(-c2nonc2N)c1-c1ccc(Cl)c(Cl)c1)c1ccncc1
IC50 (Fatty acid synthase [1]): 28 µM (inactive)
IC50 (Fatty acid synthase [2]): 20.9 µM (inactive)

Cn1cc(C(=O)NC2CCCCCC2)c(=O)c2cc(S(=O)(=O)N3CCCC3)ccc21
IC50 (Estrogen receptor): > 50 µM (not active)

COc1ccc(OC)c(NC(=O)c2cc(-c3ccc(C)cc3O)[nH]n2)c1
IC50 (Estrogen receptor): 22.1 µM (active)

CC(=O)n1c2ccccc2c2c1c1ccccc1n2C
IC50 [3]: > 66 µM (inactive)
IC50 [4]: > 66 µM (inactive)

C[C@H]1CN([C@@H](C)CO)C(=O)c2cc(NC(=O)Nc3ccc4c(c3)OCO4)ccc2O[C@H]1CN(C)S(=O)(=O)c1ccc(Cl)cc1
AC50 [5]: 5.25 µM (active)
AC50 [6]: 1.49 µM (active)
AC50 [7]: 14.5 µM (active)

CCC(C)N/C=C1/C(=O)NC(=O)N(c2ccccc2)C1=O (stereo unspecified)
IC50 [3]: > 66 µM (inactive)
IC50 [4]: > 66 µM (inactive)

CCCSc1nc(O)c(C(c2ccc(OC)c(O)c2)c2c(O)nc(SCCC)n(C)c2=O)c(=O)n1C
IC50 (Large T antigen): > 100 µM (active)
IC50 (Genome polyprotein): 42.1 µM (active)

COc1ccc([N+](=O)[O-])cc1NC(=O)CC(c1ccccc1)c1ccccc1
IC50 (Fatty acid synthase [1]): 60.1 µM (inactive)
IC50 (Fatty acid synthase [2]): 32.8 µM (inactive)

O=C(Nc1ccc(Cl)c(S(=O)(=O)N2CCOCC2)c1)c1ccc2c(c1)OCCO2
AC50 [8]: 38.9 µM (active)
AC50 [9]: 37.9 µM (active)

CCCCCCCCNC(=O)/C(C#N)=C/c1ccccc1[N+](=O)[O-]
IC50 (Fatty acid synthase [1]): 8.41 µM (active)
EC50 (Protein RecA): 3.79 µM (active)
AC50 [10]: 1.98 µM (active)
AC50 [11]: 4.28 µM (active)
IC50 (Fatty acid synthase [2]): 5.82 µM (active)

O=C1N=C(NNc2ccccc2)S/C1=C\c1ccccc1
IC50 [12]: 4.76 µM (not active)

COc1ccc(-c2nnc3n(CCc4ccccc4)c(=O)c4ccccc4n23)c(OC)c1
EC50 [13]: > 112 µM (not active)
AC50 [11]: 7.83 µM (active)
EC50 [14]: > 112 µM (not active)

CC1(C)N=C(SCC(=O)Nc2ccccc2)C(c2ccc(Cl)cc2)=N1
IC50 [3]: > 66 µM (inactive)
IC50 [4]: > 66 µM (inactive)

COc1ccc(C(=O)COC(=O)c2cc([N+](=O)[O-])ccc2N2CCOCC2)c(OC)c1
IC50 (Fatty acid synthase [1]): 1.66 µM (active)
AC50 [11]: 10.2 µM (active)
IC50 (Fatty acid synthase [2]): 1.63 µM (active)

CCOc1ccc(C(=O)Nc2cc(NC(=O)c3ccc(OCC)c(Cl)c3)cc(C(=O)O)c2)cc1Cl
IC50 [12]: 14.3 µM (active)

CSc1ncc2c(n1)-c1cc(C)ccc1SC2
EC50 [15]: > 30 µM (not active)
IC50 (Estrogen receptor): > 50 µM (not active)
EC50 [16]: 0.135 µM (active)

Cc1noc(C)c1S(=O)(=O)N(C)C[C@@H]1Oc2ccc(NC(=O)Nc3cccc4ccccc34)cc2CC(=O)N([C@H](C)CO)C[C@@H]1C
AC50 [5]: < 0.285 µM (active)
AC50 [6]: < 0.285 µM (active)
AC50 [7]: 2.17 µM (active)

CC(C)c1ccccc1NC(=O)COC(=O)c1cc([N+](=O)[O-])ccc1N1CCOCC1
IC50 (Fatty acid synthase [1]): 2.95 µM (active)
IC50 (Fatty acid synthase [2]): 2.46 µM (active)

COc1ccc2c(c1)OC[C@H]1[C@H]2N2C(=O)c3cc(C)ccc3NC(=O)[C@@]2(C)[C@H]1c1ccccc1
AC50 [11]: 1.86 µM (active)

Cc1ccc(N2C(=O)CC(SCC(=O)Nc3ccc(S(N)(=O)=O)cc3)C2=O)cc1 (stereo unspecified)
IC50 [3]: > 66 µM (inactive)
IC50 [4]: > 66 µM (inactive)

CCC(=O)N(CC)C1=C(O)C(=O)c2ccccc2C1=O
IC50 [12]: 1.44 µM (active)
EC50 (Protein RecA): 8.5 µM (active)
AC50 [10]: 14.5 µM (active)

Cc1cc(-c2ccc(/C=N/n3cnnc3)o2)c(C)c([N+](=O)[O-])c1
IC50 (Fatty acid synthase [1]): 12.5 µM (active)
IC50 (Fatty acid synthase [2]): 9.46 µM (active)

CCc1cnc(N2[C@@H](C#N)[C@H](c3ccc(C#Cc4ccccc4F)cc3)[C@@H]2CO)s1
AC50 [5]: 5.29 µM (active)
AC50 [6]: 39.8 µM (active)
AC50 [7]: 24.4 µM (active)

Cn1nnc2c(C(N)=O)ncn2c1=O [TEMOZOLOMIDE]
IC50 [3]: 43.4 µM (inactive)
IC50 [4]: > 66 µM (inactive)

COC(=O)c1sc(=S)sc1C(=O)OC
IC50 [3]: > 66 µM (inactive)
IC50 [4]: > 66 µM (inactive)

O=C(/C=C/c1cccc([N+](=O)[O-])c1)c1ccco1
AC50 [11]: 4 µM (active)
